Literature values as cited in patent publication US20190320698A1, “HYDROLYZED PECTIN AND USEOF THE SAME” (International Flavors & Fragrances Inc., priority 2018, published 2019).

details: approximate values

| SMILES | Water Solubility (g/L, approx.) |
| --- | --- |
| CCOC(=O)CC [ethyl propionate] | ~14 g/L |
| CCCC(=O)OC [methyl butyrate] | ~15 g/L |
| CSC [dimethyl sulfide] | Insoluble |
| CCOC(C)=O [ethyl acetate] | ~90 g/L |
| CCCC(=O)OCC [ethyl butyrate] | ~6 g/L |
